Laboratory results reported in patent US6683200B2, “N-substituted-N′-substituted urea derivatives and pharmaceutical compositions containing the derivatives” (Santen Pharmaceutical Co., Ltd., priority 1999, dated 2004).
Where a name gives a salt, the structure may show the parent alone.

Assays:
[1] = system: TNF-α production by human monocyte strain THP-1 cells stimulated with LPS; assay: Inhibition of LPS-induced TNF-α production in THP-1 cells (ELISA); format: cell-based; conditions: compound 10^−5M, THP-1 cells 10^6 cells/ml, LPS 2 μg/ml, 37° C., two hours; for inhibition at 10 µM: Homo sapiens, 2 h, read-out: Rate of Inhibition (%) of TNF-α production
Procedure: Each candidate compound was inspected for the effect of inhibiting TNF-α production induced by the stimulation with lipopolysaccharide (LPS), by an in vitro test according to the method proposed by McGeehan et al. (Nature, 1994, 370:558-561).
The test (assay) was carried out by determining the amount of TNF-α produced by the human monocyte strain THP-1 cells induced by the stimulation with LPS.
The culture medium used in this test was RPMI 1640 culture medium supplemented wiTNFetal calf serum (10%), L-glutamine (2 mM), 2-mercaptoethanol (50 μM), penicillin (50 units/ml) and streptomycin (50 μg/ml).
Regarding the cells, the human monocyte strain THP-1 cells cultivated in the foregoing culture medium were centrifuged at 100 xg for 5 minutes to remove the supernatant and then again suspended in a fresh culture medium prior to the practical use. The LPS used herein was derived from S. Typhimurium and this was dissolved in purified water and then diluted with the culture medium prior to use. Each compound to be tested (candidate compound) was dissolved in dimethyl sulfoxide (DMSO) and diluted with the culture medium prior to the practical use.
The cells (10^6 cells/ml) prepared according to the foregoing method were admixed with the LPS (2 μg/ml) and a compound to be tested (10^−5M), the cells were incubated at 37° C. for two hours and then centrifuged at 1000 xg for 5 minutes. The resulting supernatant of the culture medium was inspected for the level of TNF-α using the human TNF-α-specific ELISA kit. In this connection, it was confirmed that the supernatant obtained by cultivating the cells in the culture medium free of any LPS (control) never included any TNF-α.
The rate of the TNF-α production inhibitory effect observed for each candidate compound was determined according to the following equation:
Rate of Inhibition (%)=100×(A−B)/A
Wherein A is the level of TNF-α detected in the supernatant obtained from the culture medium free of any candidate compound and B is the level of TNF-α detected in the supernatant obtained from the culture medium containing a candidate compound.

Q: With `CC(C)CCN(CCN)C(=O)N[C@H](CSSC[C@H](Cc1ccccc1)NC(=O)N(CCN)CCC(C)C)Cc1ccccc1` (as salt: hydrochloride) [Compound 8-1, Bis[(2S)-2-[3-(2-aminoethyl)-3-isopentylureido]-3-phenylpropane] Disulfide di-hydrochloride] as the molecule, how does the melting point read?
A: 100 °C (dec.)

Q: For `CC(=O)SCCN(CCc1ccccc1)C(=O)N[C@@H](Cc1ccccc1)CN(C)C` [Compound 6-3, 1-[2-(Acetylthio)ethyl]-3-[(1S)-1-benzyl-2-(dimethylamino)ethyl]-1-phenethyl urea], which inhibition at 10 µM [1] is on record?
A: 83%

Q: For `CC(=O)SC[C@H](Cc1ccccc1)NC(=O)N(CCC(C)C)CCN(C)C` [Compound 6-8, 1-[(1S)-2-(Acetylthio)-1-benzylethyl]-3-[2-(dimethylamino)ethyl]-3-isopentyl urea], which inhibition at 10 µM [1] is on record?
A: 60%

Q: With `CC(=O)SC[C@H](Cc1ccc(-c2ccccc2)cc1)NC(=O)N(CCC(C)C)CCN(C)C` [Compound 6-11, 1-[(1S)-2-(Acetylthio)-1-[(4-biphenylyl)methyl]ethyl]-3-[2-(dimethylamino)-ethyl]-3-isopentyl urea] as the molecule, how does the inhibition at 10 µM [1] read?
A: 76%

Q: Which inhibition at 10 µM [1] does the source give for `CC(C)CCN(CCN)C(=O)N[C@H](CSSC[C@H](Cc1ccccc1)NC(=O)N(CCN)CCC(C)C)Cc1ccccc1` [Compound 8-1, Bis[(2S)-2-[3-(2-aminoethyl)-3-isopentylureido]-3-phenylpropane] Disulfide di-hydrochloride] here?
A: 81%

Q: For `CC(C)CCN(CCN)C(=O)N[C@H](CSSC[C@H](Cc1ccc(-c2ccccc2)cc1)NC(=O)N(CCN)CCC(C)C)Cc1ccc(-c2ccccc2)cc1.Cl.Cl` [Compound 8-2, Bis[(2S)-2-[3-(2-aminoethyl)-3-isopentylureido]-3-(4-biphenylyl)propane]-disulfide di-hydrochloride], which “Rate of Inhibition (%) of TNF-α production” value [1] is on record?
A: 66%
